Consider one molecule from ChEMBL document CHEMBL1136589, “Antineoplastic agents 390. Isolation and structure of phakellistatin 12 from a Chuuk archipelago marine sponge” (2003).

This experiment has as its system P388. The experiment can be described thus: Inhibitory activity against P388 lymphocytic leukemia cells. The class given is functional. Particulars: Mus musculus, read-out: ED50 (the source's name).

The structures appear in SMILES notation. In brackets after ≈: the same amount, converted by molar mass. Where a SMILES comes first, the peptide text is derived from it.

In the case of `CC[C@H](C)[C@@H]1NC(=O)[C@@H]2CCCN2C(=O)[C@@H]2CCCN2C(=O)[C@H]([C@@H](C)CC)NC(=O)[C@H](Cc2ccc(O)cc2)NC(=O)[C@@H]2CCCN2C(=O)[C@@H]2CCCN2C(=O)[C@H](CC(C)C)NC(=O)[C@H]([C@@H](C)O)NC(=O)[C@H](Cc2ccccc2)NC1=O` [PHAKELLISTATIN 12] (cyclo(FTLPPYIPPI)), the EC50 was 2.8 µg/mL (≈ 2.46 µM).
